Data taken from patent publication US7566712B2, “Biaryl piperazinyl-pyridine analogues” (Neurogen Corporation, priority 2003, dated 2009).

molecular target: T1, human capsaicin receptor (Homo sapiens, UniProt Q8NER1); assay: Calcium mobilization assay, determination of antagonist activity (Example 6); type: cell-based; settings: Table II; IC50 determined as described in Example 6
T1 construct: pBK-CMV expression construct encoding the full length human capsaicin receptor; expressed in transfected cells
Outline: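 HEK293 clonal lines stably expressing full-length human capsaicin receptor, loaded with Fluo-3 AM in KRH buffer pH 7.4, 1–2 h at 37 °C. Compounds (1–5 μM final) preincubated 0.5–6 h at room temperature, then capsaicin at its EC50 added. FLIPR/Fluoroskan calcium signal; IC50 as 50% decrease of capsaicin response.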

T1 sequence (Q8NER1 whole entry): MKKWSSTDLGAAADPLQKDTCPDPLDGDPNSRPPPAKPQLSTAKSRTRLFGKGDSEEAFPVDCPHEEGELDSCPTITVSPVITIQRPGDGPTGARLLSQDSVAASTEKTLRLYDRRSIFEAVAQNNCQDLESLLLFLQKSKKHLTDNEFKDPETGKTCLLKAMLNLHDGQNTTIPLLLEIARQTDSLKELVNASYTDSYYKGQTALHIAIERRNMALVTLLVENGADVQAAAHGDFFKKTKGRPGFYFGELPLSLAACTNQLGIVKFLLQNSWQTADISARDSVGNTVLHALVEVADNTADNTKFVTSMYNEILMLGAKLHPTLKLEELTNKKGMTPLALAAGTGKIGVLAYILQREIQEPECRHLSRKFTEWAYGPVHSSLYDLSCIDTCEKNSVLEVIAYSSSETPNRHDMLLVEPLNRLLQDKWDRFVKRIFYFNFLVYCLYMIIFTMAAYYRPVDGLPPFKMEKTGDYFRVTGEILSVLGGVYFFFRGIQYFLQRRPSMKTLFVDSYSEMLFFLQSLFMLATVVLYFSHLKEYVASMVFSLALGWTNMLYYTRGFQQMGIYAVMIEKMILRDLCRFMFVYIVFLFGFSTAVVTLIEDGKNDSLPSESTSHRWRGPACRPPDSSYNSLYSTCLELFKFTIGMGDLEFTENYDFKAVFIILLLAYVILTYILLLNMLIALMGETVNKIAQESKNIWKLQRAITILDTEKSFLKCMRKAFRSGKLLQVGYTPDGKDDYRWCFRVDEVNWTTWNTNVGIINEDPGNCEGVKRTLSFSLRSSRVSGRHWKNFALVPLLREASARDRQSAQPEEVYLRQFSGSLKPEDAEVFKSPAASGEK

Compound | IC50 [µM]
Cc1cccnc1N1CCN(c2cc(-c3ccc4ccccc4c3)nc(N3CCOCC3)n2)[C@H](C)C1 [Example 490, 4-[4-[(2R)-2-methyl-4-(3-methylpyridin-2-yl)piperazin-1-yl]-6-(2-naphthyl)pyrimidin-2-yl]morpholine] | ≤ 1
COC[C@@H]1CCCN1c1nc(-c2ccc(F)c(Cl)c2)cc(N2CCN(c3ncccc3C(F)(F)F)CC2)n1 [Example 550, 4-(3-chloro-4-fluorophenyl)-2-[(2S)-2-(methoxymethyl)pyrrolidin-1-yl]-6-{4-[3-(trifluoromethyl)pyridin-2-yl]piperazin-1-yl}pyrimidine] | ≤ 1
COc1cccc(-c2cc(N3CCN(c4ncccc4C(F)(F)F)C[C@H]3C)nc(N3CCOCC3)n2)c1 [Example 525, 4-(4-(3-methoxyphenyl)-6-{(2R)-2-methyl-4-[3-(trifluoromethyl)pyridin-2-yl]piperazin-1-yl}pyrimidin-2-yl)morpholine] | ≤ 1
CCc1cccc(-c2cc(N3CCN(c4ncccc4C)C[C@H]3C)nc(N3CCOCC3)n2)c1 [Example 515, 4-{4-(3-ethylphenyl)-6-[(2R)-2-methyl-4-(3-methylpyridin-2-yl)piperazin-1-yl]pyrimidin-2-yl}morpholine] | ≤ 1
COc1ccc(-c2cc(N3CCN(c4ncccc4C)C[C@H]3C)nc(N3CCOCC3)n2)cc1F [Example 540, 4-{4-(3-fluoro-4-methoxyphenyl)-6-[(2R)-2-methyl-4-(3-methylpyridin-2-yl)piperazin-1-yl]pyrimidin-2-yl}morpholine] | ≤ 1

same assay, conditions: Table II; IC50 determined as described in Example 6 (antagonist activity, calcium mobilization)

Compound | IC50 [µM]
CC1CCCN1c1nc(-c2ccc(F)c(Cl)c2)cc(N2CCN(c3ncccn3)CC2)n1 (stereo not drawn) [Example 996, 4-(3-chloro-4-fluorophenyl)-2-(2-methylpyrrolidin-1-yl)-6-(4-pyrimidin-2-ylpiperazin-1-yl)pyrimidine] | ≤ 1

same assay, conditions: Table II; determined as described in Example 6 (antagonist activity); "*" = 1 micromolar or less

Compound | IC50 [µM]
Cc1ccc(C)n1-c1nc(-c2ccc(C#N)cc2)cc(N2CCN(c3ncccc3C(F)(F)F)CC2)n1 [Example 876, 4-(2-(2,5-dimethyl-1H-pyrrol-1-yl)-6-{4-[3-(trifluoromethyl)pyridin-2-yl]piperazin-1-yl}pyrimidin-4-yl)benzonitrie] | ≤ 1
Cc1cc(C#N)cnc1N1CCN(c2cc(-c3ccc(F)cc3)nc(N3CCCC3C)n2)CC1 (stereo not drawn) [Example 931, 6-{4-[6-(4-fluorophenyl)-2-(2-methylpyrrolidin-1-yl)pyrimidin-4-yl]piperazin-1-yl}-5-methylnicotinonitrile] | ≤ 1
C[C@H]1CN(c2ncccc2Cl)CCN1c1cc(-c2ccc(F)c(Cl)c2)nc(N2CCCC2)n1 [Example 946, 4-(3-chloro-4-fluorophenyl)-6-[(2S)-4-(3-chloropyridin-2-yl)-2-methylpiperazin-1-yl]-2-pyrrolidin-1-ylpyrimidine] | ≤ 1
C[C@@H]1CN(c2ncccc2Cl)CCN1c1cc(-c2ccc(F)cc2)nc(S(C)(=O)=O)n1 (stereo in doubt) [Example 840, 4-[4-(3-chloropyridin-2-yl)-2-methylpiperazin-1-yl]-6-(4-fluorophenyl)-2-(methylsulfonyl)pyrimidine] | ≤ 1
CC(=O)c1ccc(-c2cc(N3CCN(c4ncccc4Cl)C[C@H]3C)nc(N3CCCC3)n2)cc1 [Example 856, 1-(4-{6-[(2R)-4-(3-chloropyridin-2-yl)-2-methylpiperazin-1-yl]-2-pyrrolidin-1-ylpyrimidin-4-yl)phenyl)ethanone] | ≤ 1
C[C@H]1CN(c2ncccc2Cl)CCN1c1cc(-c2ccc(Cl)c(F)c2)nc(Cl)n1 [Example 953, 2-chloro-4-(4-chloro-3-fluorophenyl)-6-[(2S)-4-(3-chloropyridin-2-yl)-2-methylpiperazin-1-yl]pyrimidine] | ≤ 1
CC(=O)Nc1cnc(N2CCN(c3cc(-c4ccc(F)c(Cl)c4)nc(N4CCCC4C)n3)CC2)c(C)c1 (stereo not drawn) [Example 816, N-(6-{4-[6-(3-chloro-4-fluorophenyl)-2-(2-methylpyrrolidin-1-yl)pyrimidin-4-yl]piperazin-1-yl}-5-methylpyridin-3-yl)acetamide] | ≤ 1

same assay, conditions: determined as described in Example 6 (calcium mobilization, antagonist activity); Table II

Compound | IC50 [µM]
Nc1cccc(-c2cc(N3CCN(c4ncccc4C(F)(F)F)CC3)nc(N3CCOCC3)n2)c1 [Example 589, 3-(2-morpholin-4-yl-6-{4-[3-(trifluoromethyl)pyridin-2-yl]piperazin-1-yl}pyrimidin-4-yl)phenylamine] | ≤ 1
Cc1cc(-c2cc(N3CCN(c4ncccc4F)CC3)nc(N3CCCC3C)n2)ccc1F (stereo not drawn) [Example 708, 4-(4-fluoro-3-methylphenyl)-6-[4-(3-fluoropyridin-2-yl)piperazin-1-yl]-2-(2-methylpyrrolidin-1-yl)pyrimidine] | ≤ 1
Cc1cc(-c2cc(N3CCN(c4ncccc4Cl)CC3)nc(N3CCCC3)n2)ccc1F [Example 697, 4-[4-(3-chloropyridin-2-yl)piperazin-1-yl]-6-(4-fluoro-3-methylphenyl)-2-pyrrolidin-1-ylpyrimidine] | ≤ 1
Cc1cc(-c2cc(N3CCN(c4ncccc4C(F)(F)F)CC3)nc(N3CCCCC3)n2)ccc1F [Example 675, 4-(4-fluoro-3-methylphenyl)-2-piperidin-1-yl-6-{4-[3-(trifluoromethyl)pyridin-2-yl]piperazin-1-yl}pyrimidine] | ≤ 1
CN(CC(=O)O)c1nc(-c2ccc(F)c(Cl)c2)cc(N2CCN(c3ncccc3C(F)(F)F)CC2)n1 [Example 619, N-(4-(3-chloro-4-fluorophenyl)-6-{4-[3-(trifluoromethyl)pyridin-2-yl]piperazin-1-yl}pyrimidin-2-yl)-N-methylglycine] | ≤ 1
CS(=O)(=O)C1CCN(c2nc(-c3ccc(F)c(Cl)c3)cc(N3CCN(c4ncccc4C(F)(F)F)CC3)n2)CC1 [Example 655, 4-(3-chloro-4-fluorophenyl)-2-[4-(methylsulfonyl)piperidin-1-yl]-6-{4-[3-(trifluoromethyl)pyridin-2-yl]piperazin-1-yl}pyrimidine] | ≤ 1
Fc1ccc(-c2cc(N3CCN(c4ncccc4C(F)(F)F)CC3)nc(-c3ncc[nH]3)n2)cc1Cl [Example 656, 4-(3-chloro-4-fluorophenyl)-2-(1H-imidazol-2-yl)-6-{4-[3-(trifluoromethyl)pyridin-2-yl]piperazin-1-yl}pyrimidine] | ≤ 1
CN(c1nc(-c2ccc(F)c(Cl)c2)cc(N2CCN(c3ncccc3C(F)(F)F)CC2)n1)C1CCCCC1 [Example 578, 4-(3-chloro-4-fluorophenyl)-N-cyclohexyl-N-methyt-6-{4-[3-(trifluoromethyl)pyridin-2-yl]piperazin-1-yl}pyrimidin-2-amine] | ≤ 1
Cc1cc(-c2cc(N3CCN(c4ncccc4C(F)(F)F)CC3)nc(-c3ccncc3)n2)ccc1F [Example 689, 4-(4-fluoro-3-methylphenyl)-2-pyridin-4-yl-6-{4-[3-(trifluoromethyl)pyridin-2-yl]piperazin-1-yl}pyrimidine] | ≤ 1
Cc1cc(-c2cc(N3CCN(c4ncccc4C(F)(F)F)CC3)nc(N3CCOCC3)n2)ccn1 [Example 575, 4-(4-(2-methylpyridin-4-yl)-6-{4-[3-(trifluoromethyl)pyridin-2-yl]piperazin-1-yl}pyrimidin-2-yl)morpholine] | ≤ 1
CC1(C)CN(c2nc(-c3ccc(F)c(Cl)c3)cc(N3CCN(c4ncccc4C(F)(F)F)CC3)n2)CCO1 [Example 636, 4-(4-(3-chloro-4-fluorophenyl)-6-{4-[3-(trifluoromethyl)pyridin-2-yl]piperazin-1-yl}pyrimidin-2-yl)-2,2-dimethylmorpholine] | ≤ 1
